pIC50: −log10 of the molar value.
How the values were obtained:
Noxa = Noxa protein expression by immunoblotting; format: cell-based, human; conditions: for Noxa protein induction upon knockdown of ATF3/4: SW480 cells, 100 μM CB002 or 25 μM CB002-analog #4
Method: Immunoblotting. After treatment, cells were harvested by trypsinization, washed with phosphate-buffered saline, and lysed with RIPA buffer (Sigma-Aldrich) for thirty minutes to one hour at 4° C. Protein lysates were spun down. The supernatant was collected. Protein quantification was performed using a Pierce™ BCA Protein Assay Kit (Thermo Fisher Scientific, Waltham, Mass., USA). 1× NuPAGE® LDS sample buffer (Thermo Fisher Scientific, Waltham, Mass., USA) and 2-Mercaptoethanol as the reducing agent (Sigma-Aldrich) were added to protein lysates followed by boiling for fifteen minutes at 95° C. Equal total protein amounts samples were loaded into NuPAGE™ Novex™ 4-12% Bis-Tris Protein Gels (1.5 mm, Thermo Fisher Scientific, Waltham, Mass., USA). Gel electrophoresis was performed with NuPAGE™ MES SDS Running Buffer. Proteins were transferred onto an Immobilon-P membrane (PVDF, EMD Millipore, Taunton, Mass., USA) using a Bio-Rad system with a 10% Tris-Glycine and 10% methanol transfer buffer diluted in distilled and deionized water. After transfer, membranes were blocked with 10% milk in Tris-buffered saline with Tween 20 (TBST) solution. The membranes were then incubated overnight with the primary antibody, washed with TBST, and incubated with secondary antibody for one hour. Incubations were performed in 5% milk in TBST solution. Signal was detected by using a chemiluminescent detection kit, followed by autoradiography. The following antibodies were used: p53 (DO-1, 1:1000, Santa Cruz, Calif., USA), p73 (1:1000, Bethyl Laboratories), p21, and NOXA (1:250, EMD Millipore, Taunton, Mass., USA), DR5, FADD, cleaved caspase 3, cleaved caspase 8, cleaved PARP, and LC3B (1:1000, Cell Signaling Technology, Inc., Danvers, Mass. USA), and β-actin (1:10000, Sigma-Aldrich, St. Louis, Mo., USA).
Immunoblotting (additional method). […] Total protein per sample was determined using a Pierce™ BCA Protein Assay Kit (Thermo Fisher Scientific, Waltham, Mass., USA). […] Signal was detected using a chemiluminescent detection kit, followed by autoradiography. […]

HCT116 p53 R175H = assay: CellTiter-Glo (Cell-Titer glow) cytotoxicity assay; format: cell-based, human; conditions: forty-eight hours
Method: CellTiter-Glo® luminescent cell viability assay. Cells were seeded in 96-well plates at a density of 5×10^3 cells per well. 20 μL of CellTiter-Glo® Reagent was added directly to the wells, following the manufacturers protocol. The bioluminescence signal was determined using an IVIS imaging system, optionally at a period of 48-72 hours after treatment.
Overexpression of p53 R175H mutant by lentivirus infection. HCT116 p53^−/− cells, obtained from the Vogelstein Laboratory, Johns Hopkins University, were infected with a lentivirus vector containing the p53 R175H mutant (pLenti6/V5-p53_R175H, Addgene). Cells were selected with blasticidin (8 μg/mL)-containing media cultured for ten days. Blasticidin-resistant clones (pooled clones) were screened for expression of the p53 R175H mutation by Western blot analysis with p53 DO-1 antibody.
CB002-analog #4 is a potent anti-tumor agent in vitro and in vivo. The inventors focused on lead CB002-analog #4 and investigated its therapeutic index in vitro and in vivo. The inventors treated an isogenic HCT116 cell line panel with 100 μM CB002 or 25 μM CB002-analog #4 and established IC50 values by the Cell-Titer glow cytotoxicity assay. Across this panel, CB002-analog #4 has a 20-fold to 30-fold range in IC50 values, independently of the HCT116 p53-status.

SMILES: Cn1c(=O)c2[nH]c(Nc3cccc(C(F)(F)F)c3)nc2n(C)c1=O [CB002-analog #4]
- Noxa protein induction upon knockdown of ATF3/4 (Noxa): abrogated Noxa protein induction
- pIC50 (HCT116 p53 R175H): 5.35

SMILES: Cn1c(=O)c2[nH]c(Nc3ccccc3)nc2n(C)c1=O [CB002]
- Noxa expression (Noxa; 24 hours, DLD-1 and SW480 cells): induce Noxa expression
- Noxa protein induction upon knockdown of ATF3/4 (Noxa): abrogated Noxa protein induction
- pIC50 (HCT116 p53 R175H; Homo sapiens, HCT-116): 3.40
